Laboratory results taken from publication PMC4032197 (Journal of Medicinal Chemistry, 2014).

What was measured:
human EP2 receptors [1] = target: T1, human EP2 receptors (Homo sapiens, UniProt P43116); settings: for EP2 potency (in words): tested at 1 μM
[2] = mouse
human EP2 receptors [3] = target: T1, human EP2 receptors; settings: earlier study; cited from earlier work

T1 sequence (P43116 whole entry): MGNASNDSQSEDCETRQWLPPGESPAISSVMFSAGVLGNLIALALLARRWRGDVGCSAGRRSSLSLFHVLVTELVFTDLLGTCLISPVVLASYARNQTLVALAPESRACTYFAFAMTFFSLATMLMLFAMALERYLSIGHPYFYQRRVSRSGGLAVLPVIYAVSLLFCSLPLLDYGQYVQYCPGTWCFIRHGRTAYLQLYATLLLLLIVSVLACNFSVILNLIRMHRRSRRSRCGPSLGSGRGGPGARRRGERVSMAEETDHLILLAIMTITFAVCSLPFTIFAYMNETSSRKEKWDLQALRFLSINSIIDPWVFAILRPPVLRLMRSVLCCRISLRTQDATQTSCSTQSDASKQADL

SMILES	fold less EP2 potency in comparison to 5a (human EP2 receptors [1])	EP2 potency (in words) (human EP2 receptors [1])	other results
COc1ccc(/C=C/C(=O)NCCn2c(C(F)(F)F)cc3ccccc32)cc1 [5e]			fold less EP2 potency in comparison to 5d (human EP2 receptors [1]): 16 fold
Cc1cc(/C=C/C(=O)NCCn2c(C(F)(F)F)cc3ccccc32)cc(C)c1F [5f]			fold less EP2 potency in comparison to 5d (human EP2 receptors [1]): 16 fold
COc1cc(/C=C/C(=O)NCCc2c(C)oc3ccccc23)cc(OC)c1OC [5k]	138 fold		
COc1cc(/C=C/C(=O)NCc2c(C)[nH]c3ccccc23)cc(OC)c1OC [5s]		complete loss of potency	
COc1ccc(CCNC(=O)CCn2c(C)cc3ccccc32)cc1OC [5u]		killed EP2 potency	
COc1cc(C(N)CC(=O)NCCn2c(C)cc3ccccc32)cc(OC)c1OC (centres unmarked) [5w]	180 fold		
COC(=O)[C@H](Cc1c(C)[nH]c2ccccc12)NC(=O)/C=C/c1cc(OC)c(OC)c(OC)c1 [5y]		inactive	
Cc1cc2ccccc2n1CCNC(=O)/C=C/c1ccc(OCCO)c(OCCO)c1 [6a, (E)-3-(3,4-Bis(2-hydroxyethoxy)phenyl)-N-(2-(2-methyl-1H-indol-1-yl)ethyl)acrylamide]			in vivo plasma half-life [2]: more than an hour; brain penetration property ([2]; in vivo): poor
COc1cc(/C=C/C(=O)OCCn2c(C)cc3ccccc32)cc(OC)c1OC [6h]	about 140 fold		
Cc1cc2ccccc2n1CCNC(=O)C1CC1c1ccc(F)cc1 (centres unmarked) [6i]	100 fold		
COc1cc(/C=C/C(=O)NCCN2CCCCC2C)cc(OC)c1OC (centres unmarked) [6j]			EP2 activity (in words) (human EP2 receptors [3]): complete loss of activity
COc1ccc(/C=C/C(=O)NCCn2c(C)cc3ccccc32)cc1 [6q]	7 fold		
COc1cc(/C=C/C(=O)NCCc2n[nH]c3ccccc23)cc(OC)c1OC [6t]		completely lost EP2 potency	
